We go through 11 compounds from US20250282799A1, “SUBSTITUTED PYRIDO[4,3-d]PYRIMIDINES AS KRAS MODULATORS” (Alterome Therapeutics, Inc., priority 2023, published 2025).

Structures are written as SMILES.

In the experiment the test system is KRAS G12V dependent lung adenocarcinoma cell line, NCI-H441. Description: Cellular pERK (Thr202/Tyr204) FRET/HTRF assay. Type of experiment: cell-based. The source says:
“Ras” refers to a protein in the Ras superfamily of small GTPases, such as in the Ras subfamily. […] The Ras proteins play a critical role in the regulation of cell behaviors, including proliferation, differentiation, and survival. […] KRAS G12V, G12D, and G12S variants are common in human cancers and Ras inhibitors binding in or near the Switch II pocket may provide mutant binding selectivity. RAS mutations are known to be often associated with pancreatic, colorectal and non-small-cell lung carcinomas (Lone, A. M. et al. J. Am. Chem. Soc. 2011,133, 11665-74, which is entirely incorporated herein by reference; Dillon, M. B.; Bachovchin, D. A.; Brown, S. J.; Finn, M. G.; Rosen, H.; Cravatt, B. F.; Mowen, K. A. ACS Chem. Biol. 2012, 7, 1198-204, which is entirely incorporated herein by reference; Bachovchin, D. A.; Brown, S. J.; Rosen, H.; Cravatt, B. F. Nat. Biotechnol. 2009, 27, 387-94, Ostrem, J. M.; Peters, U.; Sos, M. L.; Wells, J. A.; Shokat, K. M. Nature 2013, 503, 548-551. Ryan M. B. and Corcoran R. B, Nat. Rev Clin Onco. 2018, 11, 709-720.). Ras proteins are key members in the Ras/Raf/Mitogen-activated protein kinase (MAPK) signaling pathway. This pathway regulates a wide variety of cellular processes, including proliferation, differentiation, apoptosis, and stress responses. One way to measure the impact of an inhibitor of Ras proteins is to measure downstream phosphorylation of proteins in the MAPK pathway. The MAPK pathway includes extracellular signal-regulated kinases named ERK1 and ERK2, which are serine-threonine kinases that regulate cellular signaling under both normal and oncogenic conditions. ERK expression and hyperactivation via phosphorylation plays a major role in cancer progression and are downstream of Ras proteins. The assay used for measuring the downstream impact of Ras inhibition is the use of a highly sensitive cell-based readout of ERK phosphorylation (pERK) specifically on Threonine (Thr) 202 and Tyrosine (Tyr) 204 in a KRAS G12V dependent lung adenocarcinoma cell line, NCI-H441 (ATCC Cat #HTB-174). The assay described herein is suitable for assessing inhibition of Ras and can be tailored for any of the predominant oncogenic mutations in any isoform of Ras (e.g., KRAS, HRAS, and NRAS) by changing the cell line.
pERK was measured using an advanced pERK assay designed for the robust and highly sensitive quantification of ERK phosphorylation on Thr202/Tyr204. This assay is intended for the simple, rapid, and direct detection of endogenous levels of ERK1/2 in cells, but only when ERK is phosphorylated at Thr202 and Tyr204 (Perkin Elmer Catalog #64AERPEH). pERK was detected in a FRET based sandwich assay format using 2 different specific antibodies, one labelled with Eu3+-Cryptate (donor) and the second with d2 (acceptor). When the dyes are in close proximity, the excitation of the donor with a light source (laser or flash lamp) triggers a Fluorescence Resonance Energy Transfer (FRET) towards the acceptor, which in turn fluoresces at a specific wavelength (665 nm). The specific signal modulates positively in proportion to p-ERK1/2 (Thr202/Tyr204). The simple mix-and-read protocol eliminates all wash steps for faster analysis and high-quality output. Briefly, cells were diluted to the desired concentration per well based on a growth curve showing ˜75% confluence within a 24-hour time period at no less than 95% viability. Cell suspension (24 μL) were added into each well of 384-well culture plate and maintained in 37° C. 5% CO2 incubator overnight prior to assay. All compounds were transferred to stock plates using TECAN (EVO200) liquid handler using DMSO as the solubilizing and dilution agent. Test compounds were transferred onto adherent cells using an Echo655 liquid handler. DMSO was employed as negative control. Cells were incubated with test compounds for 1 hr in a 37° C., 5% CO2 incubator following compound addition. […]

The mark [1] stands for this setting: Homo sapiens, NCI-H441, cellular pERK (Thr202/Tyr204) HTRF, NCI-H441 cells.
[2] abbreviates: cellular pERK HTRF, NCI-H441 (KRAS G12V) cells.
The mark [3] stands for this setting: cellular pERK (Thr202/Tyr204) HTRF, NCI-H441 cells.

On to `C=C1CN2CCC[C@@]2(COc2nc(N3CCOC[C@H]4[C@H](F)[C@H]43)c3cc(C(F)(F)F)c(-c4ccc(F)c5sc(N)c(C#N)c45)c(F)c3n2)C1` (atropisomer, axis not shown) [Example 432, 2-amino-7-fluoro-4-((S)-8-fluoro-4-((1S,7S,8S)-8-fluoro-5-oxa-2-azabicyclo[5.1.0]octan-2-yl)-2-(((S)-2-methylenetetrahydro-1H-pyrrolizin-7a(5H)-yl)methoxy)-6-(trifluoromethyl)quinazolin-7-yl)benzo[b]thiophene-3-carbonitrile], for which, under setting [1], the IC50 is less than 50 nM.
On to `C=C1CN2CCC[C@@]2(COc2nc(N3CCOC[C@H]4[C@H](F)[C@H]43)c3cc(C(F)(F)F)c(-c4ccc(F)c5sc(N)c(C#N)c45)c(F)c3n2)C1` (atropisomer, axis not shown) [Example 433, 2-amino-7-fluoro-4-((R)-8-fluoro-4-((1S,7S,8S)-8-fluoro-5-oxa-2-azabicyclo[5.1.0]octan-2-yl)-2-(((S)-2-methylenetetrahydro-1H-pyrrolizin-7a(5H)-yl)methoxy)-6-(trifluoromethyl)quinazolin-7-yl)benzo[b]thiophene-3-carbonitrile], for which the IC50 (Homo sapiens, NCI-H441, cellular pERK HTRF, NCI-H441 (KRAS G12V) cells) lay in the range of 500 to 10000 nM.
For the compound `N#Cc1c(N)sc2c(F)ccc(-c3c(C(F)(F)F)cc4c(N5CCOC[C@H]6[C@H](F)[C@H]65)nc(OC[C@@]56CCCN5CC(=C(F)F)C6)nc4c3F)c12` (atropisomer, axis not shown) [Example 438, 2-amino-4-((R)-2-(((S)-2-(difluoromethylene)tetrahydro-1H-pyrrolizin-7a(5H)-yl)methoxy)-8-fluoro-4-((1S,7S,8S)-8-fluoro-5-oxa-2-azabicyclo[5.1.0]octan-2-yl)-6-(trifluoromethyl)quinazolin-7-yl)-7-fluorobenzo[b]thiophene-3-carbonitrile], under setting [2], the IC50 fell in the range of 500 to 10000 nM.
Still for that read-out and setting: with `N#Cc1c(N)sc2c(F)ccc(-c3c(C(F)(F)F)cc4c(N5CCOC[C@H]6[C@H](F)[C@H]65)nc(OC[C@@]56CCCN5CC(=C(F)F)C6)nc4c3F)c12` (atropisomer, axis not shown) [Example 439, 2-amino-4-((S)-2-(((S)-2-(difluoromethylene)tetrahydro-1H-pyrrolizin-7a(5H)-yl)methoxy)-8-fluoro-4-((1S,7S,8S)-8-fluoro-5-oxa-2-azabicyclo[5.1.0]octan-2-yl)-6-(trifluoromethyl)quinazolin-7-yl)-7-fluorobenzo[b]thiophene-3-carbonitrile] the figure was less than 50 nM.
`[2H]C([2H])(Oc1nc(N2CCOC[C@H]3[C@H](F)[C@H]32)c2cc(C#N)c(-c3ccc(F)c4sc(N)c(C#N)c34)c(F)c2n1)[C@@]12CCCN1C[C@H](F)C2` (atropisomer, axis not shown; (aS)) [Example 349, (S)-7-(2-amino-3-cyano-7-fluorobenzo[b]thiophen-4-yl)-8-fluoro-4-((1S,7S,8S)-8-fluoro-5-oxa-2-azabicyclo[5.1.0]octan-2-yl)-2-(((2R,7aS)-2-fluorotetrahydro-1H-pyrrolizin-7a(5H)-yl)methoxy-d2)quinazoline-6-carbonitrile] displayed an IC50 under setting [3] of less than 50 nM.
The same measure, in the same setting: with `[2H]C([2H])(Oc1nc(N2CCOC[C@H]3[C@H](F)[C@H]32)c2cc(C#N)c(-c3ccc(F)c4sc(N)c(C#N)c34)c(F)c2n1)[C@@]12CCCN1C[C@H](F)C2` (atropisomer, axis not shown; (aS)) [Example 351, (R)-7-(2-amino-3-cyano-7-fluorobenzo[b]thiophen-4-yl)-8-fluoro-4-((1S,7S,8S)-8-fluoro-5-oxa-2-azabicyclo[5.1.0]octan-2-yl)-2-(((2R,7aS)-2-fluorotetrahydro-1H-pyrrolizin-7a(5H)-yl)methoxy-d2)quinazoline-6-carbonitrile] the figure was 500 to 10000 nM.
Under setting [1], `[2H]C([2H])(Oc1nc(N2CCOC[C@H]3[C@H](F)[C@H]32)c2cc(Cl)c(-c3ccc(F)c4sc(N)c(C#N)c34)c(F)c2n1)[C@@]12CCCN1C[C@H](F)C2` (atropisomer, axis not shown; (aS)) [Example 352, 2-amino-4-((S)-6-chloro-8-fluoro-4-((1S,7S,8S)-8-fluoro-5-oxa-2-azabicyclo[5.1.0]octan-2-yl)-2-(((2R,7aS)-2-fluorotetrahydro-1H-pyrrolizin-7a(5H)-yl)methoxy-d2)quinazolin-7-yl)-7-fluorobenzo[b]thiophene-3-carbonitrile] showed an IC50 of 500 to 10000 nM.
Compound `[2H]C([2H])(Oc1nc(N2CCOC[C@H]3[C@H](F)[C@H]32)c2cc(F)c(-c3ccc(F)c4sc(N)c(C#N)c34)c(F)c2n1)[C@@]12CCCN1C[C@H](F)C2` (atropisomer, axis not shown; (aS)) [Example 356, 2-amino-4-((R)-6,8-difluoro-4-((1S,7S,8S)-8-fluoro-5-oxa-2-azabicyclo[5.1.0]octan-2-yl)-2-(((2R,7aS)-2-fluorotetrahydro-1H-pyrrolizin-7a(5H)-yl)methoxy-d2)quinazolin-7-yl)-7-fluorobenzo[b]thiophene-3-carbonitrile] yielded an IC50 under setting [3] of 500 to 10000 nM.
`[2H]C([2H])(Oc1nc(N2CCOC[C@H]3[C@H](F)[C@H]32)c2cc(F)c(-c3ccc(F)c4sc(N)c(C#N)c34)c(F)c2n1)[C@@]12CCCN1C[C@H](F)C2` (atropisomer, axis not shown; (aS)) [Example 357, 2-amino-4-((S)-6,8-difluoro-4-((1S,7S,8S)-8-fluoro-5-oxa-2-azabicyclo[5.1.0]octan-2-yl)-2-(((2R,7aS)-2-fluorotetrahydro-1H-pyrrolizin-7a(5H)-yl)methoxy-d2)quinazolin-7-yl)-7-fluorobenzo[b]thiophene-3-carbonitrile] returned an IC50 under setting [3] of less than 50 nM.
The same measure, in the same setting: with `[2H]C([2H])(Oc1nc(N2CCOC[C@H]3[C@H](F)[C@H]32)c2cc(C#N)c(-c3cc(N)cc4ccc(F)c(C#C)c34)c(F)c2n1)[C@@]12CCCN1C[C@H](F)C2` (atropisomer, axis not shown; (aS)) [Example 358, (S)-7-(3-amino-8-ethynyl-7-fluoronaphthalen-1-yl)-8-fluoro-4-((1S,7S,8S)-8-fluoro-5-oxa-2-azabicyclo[5.1.0]octan-2-yl)-2-(((2R,7aS)-2-fluorotetrahydro-1H-pyrrolizin-7a(5H)-yl)methoxy-d2)quinazoline-6-carbonitrile] the figure was less than 50 nM.
`[2H]C([2H])(Oc1nc(N2CCOC[C@H]3[C@H](F)[C@H]32)c2cc(Cl)c(-c3cc(N)cc4ccc(F)c(C#C)c34)c(F)c2n1)[C@@]12CCCN1C[C@H](F)C2` (atropisomer, axis not shown; (aS)) [Example 359, 4-((R)-6-chloro-8-fluoro-4-((1S,7S,8S)-8-fluoro-5-oxa-2-azabicyclo[5.1.0]octan-2-yl)-2-(((2R,7aS)-2-fluorotetrahydro-1H-pyrrolizin-7a(5H)-yl)methoxy-d2)quinazolin-7-yl)-5-ethynyl-6-fluoronaphthalen-2-amine] registered an IC50 under setting [3] of less than 50 nM.
